Like-named read-outs stand apart in the source and are kept apart here.

Holding throughout (assay type): biochemical
One test has as its target PDE1A (Homo sapiens (Human), UniProt P54750). The experiment in a line: PDE1 inhibition assay (SPA, tritium labelled cAMP), PDE1A. The following applies: Table 1, compounds of the invention; 15 nM tritium labelled cAMP.
In a further test the target is PDE1B (Homo sapiens (Human), UniProt Q01064). The experiment in a line: PDE1 inhibition assay (SPA, tritium labelled cAMP), PDE1B.
Sequence of PDE1B (Q01064 whole entry): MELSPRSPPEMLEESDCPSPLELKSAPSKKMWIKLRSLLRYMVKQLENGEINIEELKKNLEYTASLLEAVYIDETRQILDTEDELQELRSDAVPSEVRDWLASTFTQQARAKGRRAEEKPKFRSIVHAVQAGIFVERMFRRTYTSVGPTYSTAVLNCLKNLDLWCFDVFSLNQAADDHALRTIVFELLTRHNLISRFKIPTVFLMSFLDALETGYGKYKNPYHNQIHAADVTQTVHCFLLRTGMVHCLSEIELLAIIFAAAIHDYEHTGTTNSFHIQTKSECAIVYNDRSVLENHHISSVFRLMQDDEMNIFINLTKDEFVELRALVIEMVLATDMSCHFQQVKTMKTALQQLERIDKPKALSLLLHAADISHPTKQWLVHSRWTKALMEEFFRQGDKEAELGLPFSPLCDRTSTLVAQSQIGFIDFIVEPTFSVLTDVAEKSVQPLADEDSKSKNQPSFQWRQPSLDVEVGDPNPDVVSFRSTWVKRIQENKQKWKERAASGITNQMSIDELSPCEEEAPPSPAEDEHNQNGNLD
Another test has as its target PDE1C (Homo sapiens (Human), UniProt Q14123). In words: PDE1 inhibition assay (SPA, tritium labelled cAMP), PDE1C. The following applies: Table 1, compounds of the invention; 15 nM tritium labelled cAMP.
The mark [1] stands for this setting: Table 1, compounds of the invention, 15 nM tritium labelled cAMP, read-out: PDE1B, IC50.

Sequence of PDE1A (P54750 whole entry): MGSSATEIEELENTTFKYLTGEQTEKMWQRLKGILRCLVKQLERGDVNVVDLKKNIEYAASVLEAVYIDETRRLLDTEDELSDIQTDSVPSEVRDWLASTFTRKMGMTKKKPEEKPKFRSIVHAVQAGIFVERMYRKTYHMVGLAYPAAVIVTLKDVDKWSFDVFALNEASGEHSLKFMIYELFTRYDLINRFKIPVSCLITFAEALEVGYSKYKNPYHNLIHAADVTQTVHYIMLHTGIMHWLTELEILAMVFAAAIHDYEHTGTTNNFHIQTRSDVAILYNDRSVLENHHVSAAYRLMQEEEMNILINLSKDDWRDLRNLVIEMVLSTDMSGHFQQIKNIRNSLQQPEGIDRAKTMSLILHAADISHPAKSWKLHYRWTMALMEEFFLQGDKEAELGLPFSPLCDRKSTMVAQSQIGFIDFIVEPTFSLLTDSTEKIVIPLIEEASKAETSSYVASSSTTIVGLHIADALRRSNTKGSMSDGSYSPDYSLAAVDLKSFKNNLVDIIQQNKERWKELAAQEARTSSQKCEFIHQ
Sequence of PDE1C (Q14123 whole entry): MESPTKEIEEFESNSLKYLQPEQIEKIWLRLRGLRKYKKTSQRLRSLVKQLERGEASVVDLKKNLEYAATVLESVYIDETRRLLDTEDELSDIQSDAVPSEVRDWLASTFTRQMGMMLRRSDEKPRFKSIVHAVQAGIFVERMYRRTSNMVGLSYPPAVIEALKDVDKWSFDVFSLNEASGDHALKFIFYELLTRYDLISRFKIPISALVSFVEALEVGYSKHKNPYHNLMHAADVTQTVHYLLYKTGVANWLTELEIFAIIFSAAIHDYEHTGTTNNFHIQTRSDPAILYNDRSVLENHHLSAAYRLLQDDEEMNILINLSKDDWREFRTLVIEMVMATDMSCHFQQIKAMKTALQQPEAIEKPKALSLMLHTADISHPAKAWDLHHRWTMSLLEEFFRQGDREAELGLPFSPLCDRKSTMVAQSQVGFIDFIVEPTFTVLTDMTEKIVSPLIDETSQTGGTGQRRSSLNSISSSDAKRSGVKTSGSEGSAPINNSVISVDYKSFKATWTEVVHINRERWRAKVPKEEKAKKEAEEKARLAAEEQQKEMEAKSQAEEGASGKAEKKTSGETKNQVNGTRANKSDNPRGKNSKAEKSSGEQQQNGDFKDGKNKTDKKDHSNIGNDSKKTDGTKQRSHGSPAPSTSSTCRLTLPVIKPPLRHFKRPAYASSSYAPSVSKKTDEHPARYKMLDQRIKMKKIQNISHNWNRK
Experimental for PDE1A: (§1) Reactions were initiated by addition of the cyclic nucleotide substrate, and reactions were allowed to proceed for 1 hr at room temperature before being terminated through mixing with 20 μL (0.2 mg) yttrium silicate SPA beads (PerkinElmer).
Experimental for PDE1B: as §1
Experimental for PDE1C: Reactions were initiated by addition of the cyclic nucleotide substrate, and reactions were allowed to proceed for 1 hr at room temperature before being terminated through mixing with 20 μL (0.2 mg) yttrium silicate SPA beads (PerkinElmer). The beads were allowed to settle for 1 hr in the dark before the plates were counted in a Wallac 1450 Microbeta counter.

For `Cc1nn(C(C)C)c2c3cc(nc12)-c1cccnc1OCCCCOc1ncccc1CN3` [Example 1, 2^1-isopropyl-2^3-methyl-2^1H-6,11-dioxa-3-aza-2(5,7)-pyrazolo[4,3-b]pyridina-1,5(3,2)-dipyridinacycloundecaphane], the concentration for half-maximal inhibition (IC50) at PDE1A is 12 nM; against PDE1B it was 1.4 nM; against PDE1C it was 20 nM.
For `Cc1nn(C(C)C)c2c3cc(nc12)-c1cccnc1OCCCCCOc1ncccc1CN3` [Example 2, 2^1-isopropyl-2^3-methyl-2^1H-6,12-dioxa-3-aza-2(5,7)-pyrazolo[4,3-b]pyridina-1,5(3,2)-dipyridinacyclododecaphane], the IC50 against PDE1A was found to be 18 nM; on PDE1B (setting [1]), 1.5 nM; on PDE1C it was 54 nM.
For `Cc1nn(C(C)C)c2c3cc(nc12)-c1cccnc1OCCCOc1ncccc1CN3` [Example 3, 2^1-isopropyl-2^3-methyl-2^1H-6,10-dioxa-3-aza-2(5,7)-pyrazolo[4,3-b]pyridina-1,5(3,2)-dipyridinacyclodecaphane], in that order: 38 nM, 4.2 nM and 69 nM.
As for `Cc1nn(C(C)C)c2c3cc(nc12)-c1cccnc1OCCOCCOc1ncccc1CN3` [Example 4, 2^1-isopropyl-2^3-methyl-2^1H-6,9,12-trioxa-3-aza-2(5,7)-pyrazolo[4,3-b]pyridina-1,5(3,2)-dipyridinacyclododecaphane], the half-maximal inhibitory concentration (IC50) on PDE1A is 2.6 nM; on PDE1B (setting [1]), 0.54 nM; against PDE1C, 16 nM.
For `Cc1nn(C(C)C)c2c3cc(nc12)-c1cccnc1OCCCCCn1nccc1CN3` [Example 5, 2^1-isopropyl-2^3-methyl-2^1H,5^1H-11-oxa-3-aza-2(5,7)-pyrazolo[4,3-b]pyridina-1(3,2)-pyridina-5(5,1)-pyrazolacycloundecaphane], in that order: 25 nM, 4.7 nM and 80 nM.
For the compound `Cc1nn(C(C)C)c2c3cc(nc12)-c1cccnc1OCCCCOc1cccnc1CN3` [Example 6, 2^1-isopropyl-2^3-methyl-2^1H-6,11-dioxa-3-aza-2(5,7)-pyrazolo[4,3-b]pyridina-1(3,2),5(2,3)-dipyridinacycloundecaphane], the half-maximal inhibitory concentration (IC50) against PDE1A stood at 0.47 nM; at PDE1B (setting [1]), 0.27 nM; against PDE1C, 3.9 nM.
For `Cc1nn(C)c2c3cc(nc12)-c1cccnc1OCCCCOc1ncccc1CN3` [Example 7, 2^1,2^3-dimethyl-2^1H-6,11-dioxa-3-aza-2(5,7)-pyrazolo[4,3-b]pyridina-1,5(3,2)-dipyridinacycloundecaphane], in that order: 428 nM, 95 nM and 497 nM.
For `CCn1nc(C)c2nc3cc(c21)NCc1cccnc1OCCCCOc1ncccc1-3` [Example 8, 2^1-ethyl-2^3-methyl-2^1H-6,11-dioxa-3-aza-2(5,7)-pyrazolo[4,3-b]pyridina-1,5(3,2)-dipyridinacycloundecaphane], in that order: 256 nM, 36 nM and 412 nM.
With `Cc1nn(C(C)C)c2c3cc(nc12)-c1cccnc1OCCCCn1nccc1CN3` [Example 9, 2^1-isopropyl-2^3-methyl-2^1H,5^1H-10-oxa-3-aza-2(5,7)-pyrazolo[4,3-b]pyridina-1(3,2)-pyridina-5(5,1)-pyrazolacyclodecaphane], the 50% inhibitory concentration (IC50) came out at 53 nM on PDE1A, 15 nM on PDE1B (setting [1]) and 56 nM on PDE1C.
For `Cc1nn(C(C)C)c2c3cc(nc12)-c1cccnc1OCCCCOc1nccnc1CN3` [Example 10, 2^1-isopropyl-2^3-methyl-2^1H-6,11-dioxa-3-aza-2(5,7)-pyrazolo[4,3-b]pyridina-5(2,3)-pyrazina-1(3,2)-pyridinacycloundecaphane], the IC50 at PDE1A is 10 nM; against PDE1C, 17 nM. Besides, the inhibition at 10 µM at PDE1B (read-out: PDE1B, inhibition at 10 μM) was > 99%.

By IC50 is commonly meant the concentration needed to halve the response being measured. The term inhibition denotes how much of the control response was suppressed.

The record behind these values is patent publication US10618913B2, “Macrocycles as PDE1 inhibitors” (H. Lundbeck A/S, priority 2017, dated 2020).
